Here are results for ten compounds from patent EP1388586A2, “Identification of broadly reactive DR restricted epitopes” (priority 1998, dated 1999).

For this test, the target named is T1, DRB1*0301 (DR3w17) (Homo sapiens, UniProt P01903+P01911, A100K/A102G/A103R/A169T/F55Y/I96L/K41T/L162R/M171V/P40S/Q125H/Q178H/Q39Y/R42S/S66N/T106N/T262R/W38E/Y61H).
T1 construct: used as sources of human HLA class II molecules; endogenous in cells; host or cells: MAT (EBV-transformed homozygous B cell line)
Kind of test: Class II peptide-binding assay, DR3 (pH 4.5).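 Also: unlabeled peptide competing with a radiolabeled probe peptide for binding to affinity-purified HLA-DR3, IC50 regarded as an approximation of Kd.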 The settings on record: Table VIII.

[1] abbreviates: read-out: In IC50 Format DR3 nM, values in parentheses read as lower bounds.

Read-outs that look alike come from different tables or passages of the source. Ends that are not written are not given here. Peptide text beside a SMILES is read from it.

T1 sequence (P01903 26-254, other chains not shown): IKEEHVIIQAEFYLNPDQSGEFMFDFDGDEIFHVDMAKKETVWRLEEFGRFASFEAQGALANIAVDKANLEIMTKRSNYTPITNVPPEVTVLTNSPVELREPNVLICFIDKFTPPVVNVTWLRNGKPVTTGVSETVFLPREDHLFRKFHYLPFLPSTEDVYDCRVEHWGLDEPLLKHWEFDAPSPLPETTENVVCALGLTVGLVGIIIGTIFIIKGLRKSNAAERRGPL

As usually defined, the IC50 is the concentration that inhibits the measured activity by half. As to `CC[C@H](C)[C@H](NC(=O)CNC(=O)[C@H](Cc1ccccc1)NC(=O)[C@@H](NC(=O)[C@H](CC(C)C)NC(=O)[C@@H](N)CCC(N)=O)C(C)C)C(=O)N[C@@H](CCC(=O)O)C(=O)N[C@H](C(=O)N[C@H](C(=O)N[C@@H](CCC(=O)O)C(=O)N[C@H](C(=O)N[C@H](C(=O)N1CCC[C@H]1C(=O)N[C@H](C(=O)N[C@@H](CO)C(=O)O)[C@@H](C)CC)C(C)C)C(C)C)C(C)C)C(C)C` [Peptide 39.0389], the IC50 under setting [1] was 41.7 µM.

As to DNLYYWDQDPPERGA [Peptide 39.0383], the IC50 under setting [1] was over 120 µM.

On to `CC(C)C[C@H](NC(=O)[C@H](CCCCN)NC(=O)[C@H](Cc1c[nH]c2ccccc12)NC(=O)[C@H](CC(C)C)NC(=O)[C@H](CC(=O)O)NC(=O)[C@H](CO)NC(=O)[C@H](Cc1ccccc1)NC(=O)[C@@H](NC(=O)[C@H](CCC(=O)O)NC(=O)[C@H](CCC(N)=O)NC(=O)[C@H](CO)NC(=O)[C@H](CC(C)C)NC(=O)[C@@H]1CCCN1C(=O)[C@@H]1CCCN1C(=O)[C@@H](N)CCC(=O)O)[C@@H](C)O)C(=O)O` [Peptide 39.0409], for which the IC50 (read-out: In IC50 Format DR3) was over 120 µM.

With `CC[C@H](C)[C@H](N)C(=O)N[C@@H](Cc1c[nH]c2ccccc12)C(=O)N[C@@H](CCCCN)C(=O)N[C@@H](Cc1ccccc1)C(=O)N1CCC[C@H]1C(=O)N[C@@H](CC(=O)O)C(=O)N[C@@H](CCC(=O)O)C(=O)N[C@@H](CCC(=O)O)C(=O)NCC(=O)N[C@@H](C)C(=O)N[C@@H](CS)C(=O)N[C@@H](CCC(N)=O)C(=O)N1CCC[C@H]1C(=O)N[C@@H](CS)C(=O)N1CCC[C@H]1C(=O)O` [Peptide 39.0358] (H-IWKFPDEEGACQPCP-OH), the IC50 under setting [1] was over 111 µM.

`CC[C@H](C)[C@H](NC(=O)[C@H](C)NC(=O)[C@@H](N)CCSC)C(=O)N[C@@H](Cc1ccc(O)cc1)C(=O)N[C@@H](CCCCN)C(=O)N[C@@H](CCC(N)=O)C(=O)N[C@@H](CO)C(=O)N[C@@H](CCC(N)=O)C(=O)N[C@@H](Cc1c[nH]cn1)C(=O)N[C@@H](CCSC)C(=O)N[C@H](C(=O)N[C@@H](CCC(=O)O)C(=O)N[C@H](C(=O)N[C@H](C(=O)N[C@@H](CCCNC(=N)N)C(=O)O)C(C)C)C(C)C)[C@@H](C)O` [Peptide 39.0414]: the 50% inhibitory concentration (IC50) (read-out: In IC50 Format DR3) was over 120 µM.

Turning to `CSCC[C@H](NC(=O)[C@H](CC(=O)O)NC(=O)[C@H](CC(=O)O)NC(=O)[C@H](CC(=O)O)NC(=O)[C@H](CCC(=O)O)NC(=O)[C@H](CC(C)C)NC(=O)[C@H](CC(C)C)NC(=O)[C@H](CO)NC(=O)[C@@H](N)CCCNC(=N)N)C(=O)NCC(=O)N[C@@H](CC(=O)O)C(=O)N[C@@H](CC(C)C)C(=O)N[C@H](C(=O)N[C@@H](CC(=O)O)C(=O)N[C@@H](C)C(=O)O)C(C)C` [Peptide 39.0374], the IC50 under setting [1] turned out to be 37.5 µM.

On to `CC[C@H](C)[C@H](NC(=O)[C@H](CC(N)=O)NC(=O)[C@@H](N)CCC(N)=O)C(=O)N[C@H](C(=O)N[C@@H](CCC(N)=O)C(=O)N[C@@H](CC(N)=O)C(=O)N[C@@H](CC(=O)O)C(=O)N[C@H](C(=O)NCC(=O)N[C@@H](Cc1ccccc1)C(=O)N[C@@H](Cc1ccc(O)cc1)C(=O)N[C@H](C(=O)N[C@@H](CC(C)C)C(=O)N[C@@H](Cc1c[nH]cn1)C(=O)N[C@H](C(=O)O)C(C)C)[C@@H](C)O)[C@@H](C)O)[C@@H](C)CC` [Peptide 39.0313], for which the IC50 (page 2, pH 4.5, read-out: In IC50 Format DR3) stood at 0.938 µM.

On to NKEILDEAYVMAGVG [Peptide 39.0363], for which the IC50 under setting [1] was found to be 63.8 µM.

As to `CC(C)C[C@H](NC(=O)[C@H](CC(=O)O)NC(=O)[C@@H](NC(=O)[C@H](CS)NC(=O)[C@H](CO)NC(=O)[C@@H](N)Cc1c[nH]cn1)C(C)C)C(=O)N[C@@H](CC(=O)O)C(=O)N[C@@H](CC(=O)O)C(=O)N[C@@H](CCCCN)C(=O)NCC(=O)N[C@@H](CS)C(=O)N1CCC[C@H]1C(=O)N[C@@H](C)C(=O)N[C@@H](CCC(=O)O)C(=O)N[C@@H](CCC(N)=O)C(=O)O` [Peptide 39.0359], the IC50 under setting [1] was over 111 µM.

For the compound MRRLLQETELVEPLT [Peptide 39.0360], under setting [1], the IC50 is over 111 µM.
